In ChEMBL document CHEMBL5620379, “Discovery, SAR and mechanistic studies of quinazolinone-based acetamide derivatives in experimental visceral leishmaniasis” (Eur J Med Chem, 2023):

Legend:
J774 [1] = assay: Cytotoxicity against mouse J774 cells at 50 uM incubated for 72 hrs by MTT assay relative to control; format: toxicity, cell-based; details: j774, 72 h
J774 [2] = assay: Cytotoxicity against mouse J774 cells at 25 uM incubated for 72 hrs by MTT assay relative to control; format: toxicity, cell-based; details: j774, 72 h
J774 [3] = assay: Cytotoxicity against mouse J774 cells at 12.5 uM incubated for 72 hrs by MTT assay relative to control; format: toxicity, cell-based; details: j774, 72 h
Leishmania donovani [4] = assay: Antileishmanial activity against Leishmania donovani promastigotes measured after 48 hrs by MTT assay; format: functional, organism-based
Leishmania donovani [5] = assay: Antileishmanial activity against Leishmania donovani amastigotes infected in J774 macrophage assessed as inhibition of parasite growth incubated for 48 hrs by luciferase assay; format: functional, organism-based; details: J774, 48 h
J774 [6] = assay: Cytotoxicity against mouse J774 macrophage incubated for 72 hrs by MTT assay; format: functional
[7] = Selectivity index, ratio of CC50 for mouse J774 macrophage to IC50 for Leishmania donovani amastigotes infected in J774 macrophage; format: toxicity; details: J774 macrophages, read-out: Ratio CC50/IC50
Leishmania donovani [8] = assay: Antileishmanial activity against Leishmania donovani amastigotes infected in J774 macrophage assessed as inhibition of parasite growth at 25 uM incubated for 48 hrs by luciferase assay relative to control; format: functional; design: scale not given: the % may be the effect or the level left
Leishmania donovani [9] = assay: Antileishmanial activity against Leishmania donovani promastigotes at 25 uM measured after 48 hrs by MTT assay relative to control; format: functional

SMILES | Activity (J774 [1]) | Activity (J774 [2]) | Activity (J774 [3]) | IC50 (Leishmania donovani [4]) | IC50 (Leishmania donovani [5]) | CC50 (J774 [6]) | selectivity ratio [7] | Activity (Leishmania donovani [8]) | Activity (Leishmania donovani [9])
Cn1c(-c2cccc(OCC(=O)Nc3ccc(F)cc3)c2)nc2ccccc2c1=O | 31.32% | 56.86% | 66.92% | – | – | – | – | – | –
Cn1c(-c2ccc(OCC(=O)Nc3ccccc3)cc2)nc2ccccc2c1=O | 42.62% | 78.47% | 87.94% | 17.6 µM | 22.6 µM | 43.2 µM | 1.91 | – | –
COc1ccc(NC(=O)COc2ccc(-c3nc4ccccc4c(=O)n3C)cc2)cc1OC | 37.47% | 67.45% | 83.52% | 7.86 µM | 10.5 µM | 37 µM | 3.53 | – | –
Cn1c(-c2ccc(OCC(=O)Nc3ccc(Cl)cc3)cc2)nc2ccccc2c1=O | 58.88% | 81.59% | 85.35% | 16.1 µM | 22.1 µM | 61.8 µM | 2.78 | – | –
Cn1c(-c2ccc(OCC(=O)Nc3ccc(F)cc3)cc2)nc2ccccc2c1=O | 38.87% | 69.62% | 82.8% | 8.02 µM | 11.5 µM | 41.6 µM | 3.62 | – | –
Cc1ccc(NC(=O)COc2ccc(-c3nc4ccccc4c(=O)n3C)cc2)cc1C | 31.465% | 46.38% | 67.4% | – | – | – | – | – | –
Cn1c(-c2ccc(OCC(=O)Nc3ccc(C(C)(C)C)cc3)cc2)nc2ccccc2c1=O | 26.84% | 55.66% | 59.75% | – | – | – | – | – | –
COc1ccc(NC(=O)COc2cccc(-c3nc4ccccc4c(=O)n3C)c2)cc1 | 29.78% | 52.92% | 64.08% | – | – | – | – | – | –
Cn1c(-c2ccc(OCC(=O)Nc3cccc(C(F)(F)F)c3)cc2)nc2ccccc2c1=O | 48.49% | 78.66% | 86.45% | 12.3 µM | 21.9 µM | 47.7 µM | 2.17 | – | –
Cn1c(-c2ccc(OCC(=O)Nc3ccc4c(c3)OCO4)cc2)nc2ccccc2c1=O | 45.89% | 78.08% | 85.01% | 17.5 µM | 21.5 µM | 48.5 µM | 2.25 | – | –
Cc1ccc(NC(=O)COc2ccc(-c3nc4ccccc4c(=O)n3C)cc2)cc1 | 49.93% | 81.98% | 85.59% | 22.1 µM | 24.5 µM | 50.7 µM | 2.07 | – | –
CCn1c(-c2ccc(OCC(=O)Nc3ccc(C)cc3)cc2)nc2ccccc2c1=O | 37.91% | 68.99% | 85.97% | 8.43 µM | 10.1 µM | 40.9 µM | 4.03 | – | –
CCc1ccc(NC(=O)COc2ccc(-c3nc4ccccc4c(=O)n3C)cc2)cc1 | 33.38% | 79.14% | 81.78% | 15.1 µM | 20.1 µM | 38.1 µM | 1.89 | – | –
CCn1c(-c2ccc(OCC(=O)Nc3cccc(C(F)(F)F)c3)cc2)nc2ccccc2c1=O | 47.72% | 77.31% | 87.75% | 19.8 µM | 20.9 µM | 45 µM | 2.15 | – | –
Cn1c(-c2ccc(OCC(=O)Nc3cccc4cccnc34)cc2)nc2ccccc2c1=O | 42.14% | 76.21% | 82.65% | 16.1 µM | 18.4 µM | 42.7 µM | 2.32 | – | –
Cc1ccc(NC(=O)COc2ccc(-c3nc4ccccc4c(=O)n3C)cc2)cc1Cl | 47.78% | 52.13% | 68.41% | – | – | – | – | – | –

SMILES | Activity (J774 [1]) | Activity (J774 [2]) | Activity (J774 [3]) | IC50 (Leishmania donovani [4]) | IC50 (Leishmania donovani [5]) | CC50 (J774 [6]) | selectivity ratio [7] | Activity (Leishmania donovani [8]) | Activity (Leishmania donovani [9])
Cn1c(-c2ccc(OCC(=O)Nc3ccc4c(c3)CCC4)cc2)nc2ccccc2c1=O | 36.13% | 53.88% | 87.89% | 8.26 µM | 6.23 µM | 31.7 µM | 5.09 | 78.87% | 79.73%
Cc1ccc(NC(=O)COc2cccc(-c3nc4ccccc4c(=O)n3C)c2)cc1 | 31.44% | 41.69% | 65.55% | – | – | – | – | – | –
COc1ccc(NC(=O)COc2ccc(-c3nc4ccccc4c(=O)n3C)cc2)cc1 | 35.93% | 78.71% | 83.71% | 14.3 µM | 26.1 µM | 39.2 µM | 1.5 | – | –
Cn1c(-c2ccc(OCC(=O)Nc3ccccn3)cc2)nc2ccc(Cl)cc2c1=O | 39.88% | 59.37% | 65.58% | – | – | – | – | – | –
Cn1c(-c2ccc(OCC(=O)Nc3ccc([N+](=O)[O-])cc3)cc2)nc2ccccc2c1=O | 55.85% | 80.58% | 84.05% | 18.8 µM | 22.2 µM | 54.4 µM | 2.45 | – | –
CCn1c(-c2ccc(OCC(=O)Nc3ccc(Cl)cc3)cc2)nc2ccccc2c1=O | 32.52% | 47.53% | 67.21% | – | – | – | – | – | –
Cn1c(-c2ccc(OCC(=O)Nc3ccncc3)cc2)nc2ccccc2c1=O | 40.96% | 51.89% | 71.91% | – | – | – | – | – | –
COc1cc(NC(=O)COc2ccc(-c3nc4ccccc4c(=O)n3C)cc2)cc(OC)c1OC | 39.78% | 51.67% | 69.04% | – | – | – | – | – | –
CCn1c(-c2ccc(OCC(=O)Nc3ccccn3)cc2)nc2ccccc2c1=O | 38.97% | 79.09% | 84.82% | 23.9 µM | 27.2 µM | 39.5 µM | 1.45 | – | –
Cn1c(-c2cccc(OCC(=O)Nc3cccc(C(F)(F)F)c3)c2)nc2ccccc2c1=O | 36.03% | 53.5% | 69.23% | – | – | – | – | – | –
Cn1c(-c2cccc(OCC(=O)Nc3ccc(Cl)cc3)c2)nc2ccccc2c1=O | 55.23% | 71.35% | 84.53% | 9.11 µM | 11.9 µM | 54.1 µM | 4.54 | – | –
CCn1c(-c2ccc(OCC(=O)Nc3ccc(F)cc3)cc2)nc2ccccc2c1=O | 34.39% | 43.73% | 59.51% | – | – | – | – | – | –
CC(C)c1ccc(NC(=O)COc2ccc(-c3nc4ccccc4c(=O)n3C)cc2)cc1 | 49.31% | 67.4% | 69.76% | – | – | – | – | – | –
Cn1c(-c2ccc(OCC(=O)Nc3ccccn3)cc2)nc2cc(F)ccc2c1=O | 30.36% | 58.74% | 85.3% | 6.25 µM | 9.16 µM | 35.1 µM | 3.82 | – | –
CCn1c(-c2ccc(OCC(=O)Nc3ccc(OC)cc3)cc2)nc2ccccc2c1=O | 43.01% | 62.11% | 67.45% | – | – | – | – | – | –
